Source: US5068337A, “1,4-dihydropyridines and their ability to inhibit blood platelet aggregation, inhibit thromboxane synthetase and phospholipase” (John Wyeth & Brother Limited, priority 1984, dated 1991)

What was measured:
[1] = test system: blood platelet aggregation; experiment: inhibition of blood platelet aggregation (arachidonic acid induced, rabbit platelet rich plasma); assay type: cell-based, rabbit (New Zealand White); settings: IC50 dazoxiben / IC50 test; 250 μM arachidonic acid, rabbit PRP
Protocol: Compounds of formula I were tested for their ability to inhibit blood platelet aggregation by a modification of the procedure of Fantl, Australian J.Exp.Biol- Med.Sci. 45, 355-62 1967.
Since platelet aggregation is the initial step in thrombus formation it -is considered that compounds which prevent aggregation or reduce platelet adhesiveness may inhibit the initiation of the atherosclerotic process. The effect of drugs on adhesiveness is measured in platelet-rich plasma containing a small amount of arachidonic acid which markedly increases aggregation in vitro and may be a physiological agent for doing so in vivo. The actual test procedure used in described below.
New Zealand White rabbits (2.5-3kg) are anaesthetised with an injection, via the marginal ear vein, of […]. The carotid artery is cannulated and blood (100-150 ml) is withdrawn into 50 ml syringes containing 3.8% sodium citrate (Ratio blood: citrate =9:1).
Blood is centrifuged at 200 g (1500 r.p.m.) for 10 minutes at 5° C. and the platelet rich plasma (PRP) removed. The platelets are then kept at room temperature in a screw topped plastic centrifuge tube for the duration of the experiment.
A twin channel platelet aggregometer--(HU aggregometer, A. Browne Ltd, Leicester, UK) is used. 1.0 ml aliquots of PRP are prewarmed for 5-10 minutes and stirred continuously at 1100 rpm. Aggregation is induced by addition of 250μM arachidonic acid, (8μl volume) to the PRP samples. The aggregometer output is set at maximum and the chart recorder sensitivity is altered to give a full scale deflection to this arachidonic acid response.
Control responses are recorded as the maximum deflection obtained after addition of 250μM arachidonic acid.
PRP samples are preincubated for 1 minute with the test compounds followed by arachidonic acid addition. The maximum deflection after the addition of arachidonic acid is then recorded. All drugs are screened initially at 10^-4 M (final concentration), i.e. 10μl of a 1×10^-2 M stock solution of the drug dissolved in distilled water is added to the PRP.
Dazoxiben, a thromboxane synthetase inhibitor (Randall, M. J. et al Research 23 145-162, 1981)is used as a positive control and all test components are compared with Dazoxiben. The activity of the test compound is expressed as the ratio IC50 Dazaxiben/IC50 Test where IC50 is the dose required to inhibit the A.A. induced aggregation by 50%.

thromboxane synthetase = experiment: inhibition of thromboxane production (TxB2 radio-immunoassay, rabbit platelet rich plasma); assay type: cell-based; settings: Oryctolagus cuniculus, rabbit PRP, adenosine diphosphate and adrenalin, read-out: IC50 (50% inhibition of TxB2)
Protocol: The compounds of formula I were tested for their ability to inhibit thromboxane production by the following standard test:
a) Generation of thromboxanes
Blood (approx. 75 ml) is obtained from an anaesthetised rabbit and centrifuged at 200 g for 10 minutes to obtain platelet rich plasma (PRP). An aliquot of PRP is incubated for 10 minutes at 37° C. in the presence of vehicle or drug. Platelet aggregation is induced by the addition of adenosine diphosphate and adrenalin. The tubes are incubated for 3 minutes, centrifuged at 10,000 for 3 minutes and a […] aliquot of the supernatant taken for radio-immunoassay of thromboxane B2 (TxB2).
b) Radio-immunoassay of TxB2
The total incubation volume is 150μ containing 50μl of ^3 H - TxB2 (0.005 μCi), […] of sample or authentic TxB2 ranging from 5 to 300 pg per tube as standards and 50 μl of rabbit anti-sera to TxB2 (in a concentration which will bind 50% of H-TxB2) After incubation for 1 hour at room temperature the tubes are further incubated for 16-20 hours at 4° C. 1 ml of dextran-coated charcoal is then added to the tubes which are further incubated on ice for 10 minutes. Following the incubation the samples are centrifuged at 10,000 g for 10 minutes and […] of the supernatant added to 5 ml of scintillation cocktail. Measurement of the radioactivity in the supernatant quantifies the amount of [^3 H]-TxB2 bound by the antibody. The concentration of unlabelled TxB2 in the sample is then determined from a linear standard curve.
IC50 values represent the concentrations of drug which achieve 50% inhibition of TxB2.

[2] = test system: spontaneously hypertensive rats; experiment: antihypertensive activity in spontaneously hypertensive rats (tail cuff systolic pressure); assay type: in vivo, rat
Protocol: The compounds of formula I were tested for antihypertensive activity by the following standard procedure:
The blood pressures of male or female spontaneously hypertensive rats are measured in a 37° C constant temperature housing by means of a tail cuff. Rats with systolic pressures below 155 mmHg are discarded. Groups of rats are dosed orally with the test substance in a suitable vehicle or with vehicle alone. Systolic pressures are recorded before dosing and at selected time points afterwards. Heart rates are derived from caudal artery pulses. Results are analysed statistically by means of 2 way analysis of variance (within group).

human platelet PLA2 = experiment: Phospholipase A2 (PLA2) inhibition, hydrolysis of E.coli membrane phospholipids by human platelet PLA2; assay type: biochemical; settings: 100 μM
Protocol: Of particular interest for this activity are compounds of formula I wherein Ar represents an aryl radical having a 2-nitro substituent. […] PLA2 activity was assayed by a procedure based on Franson, R.C., Chapter 12. Intracellular Metabolism of Ingested Phospholipids. Liposomes: from Physical Structure to Therapeutic Applications. North-Holland Biomedical Press, 1981, pp 349-380 and involving measuring the hydrolysis of E.coli membrane phospholipids and the release of free [1-^14 ]oleic acid from the C-2 position of phospholipids by human platelet PLA2.

isolated rat portal vein = experiment: calcium antagonist activity: response of isolated rat portal vein to increasing calcium ion concentration in vitro; settings: read-out: molar concentration required to reduce the response by 50%
Description: In this-test a-molar concentration of 2×10^-7 M of 1,4-dihydro-2-(imidazol- 1-ylmethyl)-6-methyl 4-(3-nitrophenyl)pyridine-3, 5-dicarboxylic acid 3-ethyl 5-methyl ester was required to reduce the response by 50%.

Row | Compound | IC50 (thromboxane synthetase) [µM] | IC50 (isolated rat portal vein) [µM] | Inhibition of blood platelet aggregation potency ratio (dazoxiben = 1) [1] | BLOOD PRESSURE as % of pre-dose level ([2]; 0.03 mmol/kg po, 6 hrs) [%] | BLOOD PRESSURE as % of pre-dose level ([2]; 0.03 mmol/kg po, 24 hrs) [%] | BLOOD PRESSURE as % of pre-dose level ([2]; 0.03 mmol/kg po, t = 2 hrs) [%] | BLOOD PRESSURE as % of pre-dose level ([2]; 0.15 mmol/kg po, 6 hrs) [%] | BLOOD PRESSURE as % of pre-dose level ([2]; 0.15 mmol/kg po, 24 hrs) [%] | BLOOD PRESSURE as % of pre-dose level ([2]; 0.15 mmol/kg po, t = 2 hrs) [%] | inhibition of PLA2 activity (human platelet PLA2) [%] | BLOOD PRESSURE as % of pre-dose level ([2]; 0.003 mmol/kg po, 6 hrs) [%] | BLOOD PRESSURE as % of pre-dose level ([2]; 0.003 mmol/kg po, 24 hrs) [%] | BLOOD PRESSURE as % of pre-dose level ([2]; 0.003 mmol/kg po, t = 2 hrs) [%]
1 | CCOC(=O)C1=C(COc2cccnc2)NC(C)=C(C(=O)OC)C1c1cccc([N+](=O)[O-])c1 (stereo not drawn) [Example 4, 1,4-Dihydro-2methyl-4-(3-nitrophenyl)-6-[(3-pyridyloxy)methyl]pyridine-3,5-dicarboxylic acid 5-ethyl-3-methyl diester] |  |  | 1.1 |  |  |  |  |  |  |  |  |  | 
2 | COC(=O)C1=C(C)NC(CCn2ccnc2)=C(C(=O)OC)C1c1ccccc1[N+](=O)[O-] (stereo not drawn) [Example 3, 1,4-Dihydro-2-[2-(1-imidazolyl)ethyl]-6-methyl-4-(2-nitrophenyl)pyridine-3,5-dicarboxylic acid dimethyl ester] |  |  | 1.64 |  |  |  |  |  |  |  |  |  | 
3 | CCOC(=O)C1=C(Cn2ccnc2)NC(C)=C(C(=O)OC)C1c1cccc([N+](=O)[O-])c1 (stereo not drawn) [Example 1, 1,4-Dihydro-2-(imidazol-1-ylmethyl)-6-methyl-4-(3-nitro-phenyl)pyridine-3,5-dicarboxylic acid 3-ethyl 5-methyl diester] | 5 | 0.2 | 1.2 | 62 | 105 | 48 | 46 | 85 | 42 |  | 70 | 83 | 65

Second part, led by results:

Row | IC50 (thromboxane synthetase) [µM] | IC50 (isolated rat portal vein) [µM] | Compound | Inhibition of blood platelet aggregation potency ratio (dazoxiben = 1) [1] | BLOOD PRESSURE as % of pre-dose level ([2]; 0.03 mmol/kg po, 6 hrs) [%] | BLOOD PRESSURE as % of pre-dose level ([2]; 0.03 mmol/kg po, 24 hrs) [%] | BLOOD PRESSURE as % of pre-dose level ([2]; 0.03 mmol/kg po, t = 2 hrs) [%] | BLOOD PRESSURE as % of pre-dose level ([2]; 0.15 mmol/kg po, 6 hrs) [%] | BLOOD PRESSURE as % of pre-dose level ([2]; 0.15 mmol/kg po, 24 hrs) [%] | BLOOD PRESSURE as % of pre-dose level ([2]; 0.15 mmol/kg po, t = 2 hrs) [%] | inhibition of PLA2 activity (human platelet PLA2) [%] | BLOOD PRESSURE as % of pre-dose level ([2]; 0.003 mmol/kg po, 6 hrs) [%] | BLOOD PRESSURE as % of pre-dose level ([2]; 0.003 mmol/kg po, 24 hrs) [%] | BLOOD PRESSURE as % of pre-dose level ([2]; 0.003 mmol/kg po, t = 2 hrs) [%]
4 | 12.3 |  | COC(=O)C1=C(C)NC(CCn2cnc3ccccc32)=C(C(=O)OC)C1c1cccc(Cl)c1Cl (stereo not drawn) [Example 5, 2-[2-(1-Benzimidazolyl)ethyl]-4-[2,3-dichlorophenyl]-1,4-dihydro-6-methylpyridine-3,5-dicarboxylic acid dimethylester] |  |  |  |  |  |  |  |  |  |  | 
5 | 2.3 |  | CCOC(=O)C1=C(C)NC(CCn2ccnc2)=C(C(=O)OCC)C1c1ccccc1[N+](=O)[O-] (stereo not drawn) [Example 2, 1,4-Dihydro-2-[2-(imidazol-1-yl)-ethyl]-6-methyl-4-(2-nitrophenyl)pyridine-3,5-dicarboxylic acid diethyl ester] | 0.79 | 99 | 105 | 63 | 42 | 74 | 35 | 77 |  |  | 
